For the assay, the system named is BDF1 mice, intracerebral L1210 leukemia, survival T/C. Briefly: NCI In Vivo Anticancer Drug Screen. Data for tumor model L1210 Leukemia (intracerebral) in B6D2F1 (BDF1) mice. The note with it: higher = longer survival. The method, boiled down: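 Survival measured in treated and vehicle-control tumour-bearing mice; value = T/C.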
[1] abbreviates: endpoint: mean survival time, dose: 9.0 mg/kg/injection, schedule: Q01DX001 (ip), vehicle: saline.
The mark [2] stands for this setting: endpoint: mean survival time, dose: 18.0 mg/kg/injection, schedule: Q01DX001 (ip), vehicle: carboxymethylcellulose (CMC).
[3] abbreviates: endpoint: mean survival time, dose: 26.0 mg/kg/injection, schedule: Q01DX001 (ip), vehicle: carboxymethylcellulose (CMC).
Setting [4] is: endpoint: mean survival time, dose: 40.0 mg/kg/injection, schedule: Q01DX001 (ip), vehicle: carboxymethylcellulose (CMC).
The mark [5] stands for this setting: endpoint: mean survival time, dose: 12.0 mg/kg/injection, schedule: Q01DX001 (ip), vehicle: carboxymethylcellulose (CMC).
[6] abbreviates: endpoint: mean survival time, dose: 4.0 mg/kg/injection, schedule: Q01DX001 (ip), vehicle: carboxymethylcellulose (CMC).
Where [7] appears, read: endpoint: mean survival time, dose: 6.0 mg/kg/injection, schedule: Q01DX001 (ip), vehicle: carboxymethylcellulose (CMC).
Where [8] appears, read: endpoint: mean survival time, dose: 9.0 mg/kg/injection, schedule: Q01DX001 (ip), vehicle: carboxymethylcellulose (CMC).
[9] abbreviates: endpoint: mean survival time, dose: 30.0 mg/kg/injection, schedule: Q01DX001 (ip), vehicle: saline.

Where “and” joins values, the source holds several entries; their conditions need not be identical. Equal entries are not always repeated. Toxic doses and inconclusive results are not listed.

Regarding `O=NN(CCCl)C(=O)Nc1ccc(Oc2ccc(NC(=O)N(CCCl)N=O)cc2)cc1`, the T/C is, setting by setting: (endpoint: mean survival time, dose: 440.0 mg/kg/injection, schedule: Q01DX001 (ip), vehicle: carboxymethylcellulose (CMC)) 116 % of control; (endpoint: mean survival time, dose: 670.0 mg/kg/injection, schedule: Q01DX001 (ip), vehicle: carboxymethylcellulose (CMC)) 119 % of control; (endpoint: mean survival time, dose: 1500.0 mg/kg/injection, schedule: Q01DX001 (ip), vehicle: carboxymethylcellulose (CMC)) 122 % of control.

As for `O=NN(CCCl)C(=O)NC1[C@H](O)CCC[C@@H]1O` (stereo partly specified), the T/C reads like this: (endpoint: mean survival time, dose: 2.6 mg/kg/injection, schedule: Q01DX001 (ip), vehicle: saline) 123 % of control; (endpoint: mean survival time, dose: 4.0 mg/kg/injection, schedule: Q01DX001 (ip), vehicle: saline) 112 % of control; under setting [1], 156 % of control; (endpoint: mean survival time, dose: 14.0 mg/kg/injection, schedule: Q01DX001 (ip), vehicle: saline) 388 % of control; (endpoint: mean survival time, dose: 22.0 mg/kg/injection, schedule: Q01DX001 (ip), vehicle: saline) 324 % of control.

For `CCCCCCCCCCCCCCCC(=O)Nc1ccn(C2OC(CO)C(O)C2O)c(=O)n1` (stereo unspecified), the T/C is, setting by setting: (endpoint: median survival time, dose: 12.5 mg/kg/injection, schedule: Q01DX009 (ip), vehicle: distilled water + Tween-80 + alcohol) 214 % of control; (endpoint: median survival time, dose: 25.0 mg/kg/injection, schedule: Q01DX009 (ip), vehicle: distilled water + Tween-80 + alcohol) 269 % of control.

Turning to `O=NN(CCCl)C(=O)Nc1ccc(Cn2ccc(=O)[nH]c2=O)cc1`, the T/C was 109 % of control under setting [2]; 110 % of control under setting [3]; 109 % of control under setting [4]; 122 % of control (endpoint: mean survival time, dose: 60.0 mg/kg/injection, schedule: Q01DX001 (ip), vehicle: carboxymethylcellulose (CMC)); 119 % of control (endpoint: mean survival time, dose: 90.0 mg/kg/injection, schedule: Q01DX001 (ip), vehicle: carboxymethylcellulose (CMC)).

As for `O=NN(CCCl)C(=O)Nc1cccc([N+](=O)[O-])c1`, the T/C is, setting by setting: under setting [5], 102 % of control; under setting [2], 118 % of control; under setting [3], 117 % of control; under setting [4], 115 % of control.

On to `O=CC(NC(=O)N(CCCl)N=O)C(O)C(O)C(O)CO` (stereo unspecified), for which the T/C reads like this: under setting [6], 111 % of control; under setting [7], 111 % of control; under setting [8], 112 % of control; under setting [1], 110 % of control; (endpoint: mean survival time, dose: 13.0 mg/kg/injection, schedule: Q01DX001 (ip), vehicle: carboxymethylcellulose (CMC)) 123 % of control; (endpoint: mean survival time, dose: 13.0 mg/kg/injection, schedule: Q01DX001 (ip), vehicle: saline) 109 % of control. For the same compound, the T/C runs as follows: (endpoint: mean survival time, dose: 20.0 mg/kg/injection, schedule: Q01DX001 (ip), vehicle: carboxymethylcellulose (CMC)) 119 % of control; (endpoint: mean survival time, dose: 20.0 mg/kg/injection, schedule: Q01DX001 (ip), vehicle: saline) 112 % of control; (endpoint: mean survival time, dose: 30.0 mg/kg/injection, schedule: Q01DX001 (ip), vehicle: carboxymethylcellulose (CMC)) 119 % of control; under setting [9], 117 % of control; (endpoint: mean survival time, dose: 45.0 mg/kg/injection, schedule: Q01DX001 (ip), vehicle: carboxymethylcellulose (CMC)) 111 % of control; (endpoint: mean survival time, dose: 45.0 mg/kg/injection, schedule: Q01DX001 (ip), vehicle: saline) 106 % of control.

For `O=NN(CCCl)C(=O)Nc1ccccc1`, the T/C was 97 % of control (endpoint: mean survival time, dose: 8.0 mg/kg/injection, schedule: Q01DX001 (ip), vehicle: carboxymethylcellulose (CMC)); 101 % of control under setting [5]; 107 % of control and 96 % of control under setting [2]; 95 % of control (endpoint: mean survival time, dose: 36.0 mg/kg/injection, schedule: Q01DX001 (ip), vehicle: carboxymethylcellulose (CMC)); 93 % of control (endpoint: mean survival time, dose: 72.0 mg/kg/injection, schedule: Q01DX001 (ip), vehicle: carboxymethylcellulose (CMC)).

For the compound `N[C@H](C(=O)O)[C@@H]1CC(Cl)=NO1`, the T/C runs as follows: (endpoint: mean survival time, dose: 1.0 mg/kg/injection, schedule: Q01DX009 (ip), vehicle: saline) 109 % of control; (endpoint: mean survival time, dose: 2.0 mg/kg/injection, schedule: Q01DX009 (ip), vehicle: saline) 114 % of control; (endpoint: mean survival time, dose: 16.0 mg/kg/injection, schedule: Q01DX009 (ip), vehicle: saline) 116 % of control; (endpoint: mean survival time, dose: 32.0 mg/kg/injection, schedule: Q01DX009 (ip), vehicle: saline) 100 % of control; (endpoint: median survival time, dose: 4.0 mg/kg/injection, schedule: Q01DX009 (ip), vehicle: saline) 120 % of control; (endpoint: median survival time, dose: 8.0 mg/kg/injection, schedule: Q01DX009 (ip), vehicle: saline) 124 % of control. Also, the T/C (endpoint: median survival time, dose: 32.0 mg/kg/injection, schedule: Q01DX009 (ip), vehicle: saline) was 100 % of control and the T/C (endpoint: median survival time, dose: 64.0 mg/kg/injection, schedule: Q01DX009 (ip), vehicle: saline) was 100 % of control.

Turning to `O=NN(CCCl)C(=O)NC1CCCC1`, the T/C reads like this: (endpoint: mean survival time, dose: 18.0 mg/kg/injection, schedule: Q01DX001 (ip), vehicle: saline) 170 % of control; (endpoint: mean survival time, dose: 19.0 mg/kg/injection, schedule: Q01DX001 (ip), vehicle: saline) 163 % of control and 234 % of control; (endpoint: mean survival time, dose: 25.0 mg/kg/injection, schedule: Q01DX001 (ip), vehicle: saline) 157 % of control; (endpoint: mean survival time, dose: 28.0 mg/kg/injection, schedule: Q01DX001 (ip), vehicle: saline) 264 % of control; under setting [9], 157 % of control and 190 % of control; (endpoint: mean survival time, dose: 38.0 mg/kg/injection, schedule: Q01DX001 (ip), vehicle: saline) 231 % of control and 244 % of control. Besides, the T/C (endpoint: mean survival time, dose: 42.0 mg/kg/injection, schedule: Q01DX001 (ip), vehicle: saline) was 250 % of control; the T/C (endpoint: mean survival time, dose: 44.0 mg/kg/injection, schedule: Q01DX001 (ip), vehicle: saline) is 234 % of control; the T/C (endpoint: mean survival time, dose: 50.0 mg/kg/injection, schedule: Q01DX001 (ip), vehicle: saline) was 333 % of control; the T/C (endpoint: mean survival time, dose: 64.0 mg/kg/injection, schedule: Q01DX001 (ip), vehicle: saline) was 278 % of control; the T/C (endpoint: mean survival time, dose: 67.0 mg/kg/injection, schedule: Q01DX001 (ip), vehicle: saline) was 209 % of control; the T/C (endpoint: mean survival time, dose: 75.0 mg/kg/injection, schedule: Q01DX001 (ip), vehicle: saline) was 431 % of control and 485 % of control. Also, the T/C by setting is: (endpoint: mean survival time, dose: 100.0 mg/kg/injection, schedule: Q01DX001 (ip), vehicle: saline) 257 % of control and 284 % of control; (endpoint: mean survival time, dose: 150.0 mg/kg/injection, schedule: Q01DX001 (ip), vehicle: saline) 273 % of control and 342 % of control and 363 % of control; (endpoint: mean survival time, dose: 220.0 mg/kg/injection, schedule: Q01DX001 (ip), vehicle: saline) 101 % of control.

As for `O=NN(CCCl)C(=O)Nc1cccc2cccnc12`, the T/C is 101 % of control (endpoint: mean survival time, dose: 1.0 mg/kg/injection, schedule: Q01DX001 (ip), vehicle: carboxymethylcellulose (CMC)); 103 % of control (endpoint: mean survival time, dose: 1.5 mg/kg/injection, schedule: Q01DX001 (ip), vehicle: carboxymethylcellulose (CMC)); 104 % of control (endpoint: mean survival time, dose: 2.6 mg/kg/injection, schedule: Q01DX001 (ip), vehicle: carboxymethylcellulose (CMC)); 105 % of control under setting [6]; 101 % of control under setting [7]; 102 % of control under setting [8]. The T/C is, setting by setting: under setting [5], 98 % of control; under setting [2], 98 % of control.

`O=NN(CCCl)C(=O)NC1CS(=O)(=O)CS(=O)(=O)C1`: the T/C runs as follows: (endpoint: mean survival time, dose: 11.0 mg/kg/injection, schedule: Q01DX001 (ip), vehicle: other) 118 % of control; (endpoint: mean survival time, dose: 17.0 mg/kg/injection, schedule: Q01DX001 (ip), vehicle: other) 117 % of control; (endpoint: mean survival time, dose: 56.0 mg/kg/injection, schedule: Q01DX001 (ip), vehicle: other) 119 % of control.

For the compound `O=c1[nH]c(=O)n(C2CC(O)C(CO)O2)cc1F` (stereo unspecified), the T/C runs as follows: (endpoint: mean survival time, dose: 86.0 mg/kg/injection, schedule: Q01DX015 (ip), vehicle: saline) 160 % of control; (endpoint: mean survival time, dose: 239.0 mg/kg/injection, schedule: Q01DX001 (ip), vehicle: saline) 109 % of control; (endpoint: mean survival time, dose: 364.0 mg/kg/injection, schedule: Q01DX001 (ip), vehicle: saline) 104 % of control; (endpoint: mean survival time, dose: 543.0 mg/kg/injection, schedule: Q01DX001 (ip), vehicle: saline) 117 % of control.

For `COc1ccc(NC(=O)N(C)N=O)cc1`, the T/C by setting is: (endpoint: mean survival time, dose: 67.0 mg/kg/injection, schedule: Q01DX001 (ip), vehicle: carboxymethylcellulose (CMC)) 94 % of control; (endpoint: mean survival time, dose: 100.0 mg/kg/injection, schedule: Q01DX001 (ip), vehicle: carboxymethylcellulose (CMC)) 90 % of control.
